Results as given in patent publication US9073876B2, “Flap modulators” (JANSSEN PHARMACEUTICA NV, priority 2013, dated 2015).

Columns and labels:
[1] = molecular target: human FLAP (Homo sapiens (Human), UniProt P20292); assay: FLAP binding assay (HTRF); conditions: human FLAP-containing membranes, HTRF format; average of two assay plates, duplicates; read-out: FLAP Binding wild type HTRF Ki
Experimental: (§1) The ability of the compounds of the present invention to treat a FLAP-mediated disease and/or disorder, or associated symptoms or complications thereof, was determined using the following procedures. Binding assay data represent the average value obtained from two different assay plates, with samples run in duplicate on each plate. Human whole blood assay data represent a single replicate on an assay plate using whole blood from at least one healthy donor.
Data are expressed as a HTRF ratio.

[2] = tested on: leukotriene pathway in human whole blood (LTB4 levels); assay: Human whole blood assay (LTB4); assay type: cell-based; conditions: human whole blood diluted 1:1 in RPMI, stimulated with calcium ionophore A23187; single replicate
Experimental: as §1
An in vitro cellular assay was performed using human whole blood collected in heparin-containing tubes, which was used to test the ability of compounds to modulate the leukotriene pathway in human whole blood. The blood was diluted 1:1 in RPMI medium, pre-incubated for 15 min at 37° Celsius with test compounds at various concentrations, and then stimulated with calcium ionophore, A23187 (7 μg/mL), for 30 min at 37° Celsius. The samples were then centrifuged and plasma was removed. The plasma was diluted in assay buffer and LTB4 levels were measured using a commercial kit (Enzo Life Sciences). The concentration of each compound that was required for half-maximal inhibition (modulation) of recombinant enzyme activity (IC50) was calculated by a 4-parameter equation using the program GraphPad Prism (GraphPad software).

Chain of human FLAP (P20292 whole entry): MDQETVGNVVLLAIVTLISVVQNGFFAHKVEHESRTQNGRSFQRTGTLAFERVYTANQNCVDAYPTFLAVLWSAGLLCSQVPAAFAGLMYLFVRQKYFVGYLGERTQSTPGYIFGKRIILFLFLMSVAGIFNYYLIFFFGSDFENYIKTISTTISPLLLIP

Molecule	Ki [1] [nM]	IC50 [2] [nM]
6-cyclobutyl-2-fluoro-3-(5H-pyrrolo[2,3-b]pyrazin-2-yl)phenol [Example 176]	100	892
Nc1cnc(-c2ccc(C3CCC3)c(OCC(O)Cn3cnccc3=O)c2F)cn1 (racemic) [Example 52, racemic 3-(3-(3-(5-Aminopyrazin-2-yl)-6-cyclobutyl-2-fluorophenoxy)-2-hydroxypropyl)pyrimidin-4(3H)-one]	366	680
Nc1cnc(-c2ccc(C3CCC3)c(OCC(O)Cn3ncccc3=O)c2F)cn1 (racemic) [Example 53, racemic 2-(3-(3-(5-Aminopyrazin-2-yl)-6-cyclobutyl-2-fluorophenoxy)-2-hydroxypropyl)pyridazin-3(2H)-one]	138	645
Nc1cnc(-c2ccc(C3CCC3)c(OCC(O)CNc3cncnc3)c2F)cn1 (racemic) [Example 55, racemic 1-(3-(5-Aminopyrazin-2-yl)-6-cyclobutyl-2-fluorophenoxy)-3-(pyrimidin-5-ylamino)propan-2-ol]	152	555
Nc1cnc(NCC(O)COc2c(C3CCC3)ccc(-c3cnc(N)cn3)c2F)nc1 (racemic) [Example 58, racemic 1-(3-(5-Aminopyrazin-2-yl)-6-cyclobutyl-2-fluorophenoxy)-3-((5-aminopyrimidin-2-yl)amino)propan-2-ol]	30	374
Nc1cnc(-c2ccc(C3CCC3)c(OCC(O)Cn3cncn3)c2F)cn1 (racemic) [Example 62, racemic 1-(3-(5-Aminopyrazin-2-yl)-6-cyclobutyl-2-fluorophenoxy)-3-(1H-1,2,4-triazol-1-yl)propan-2-ol]	315	832
Nc1cnc(-c2ccc(C3CCC3)c(OCC(O)Cn3nccn3)c2F)cn1 (racemic) [Example 64, racemic 1-(3-(5-Aminopyrazin-2-yl)-6-cyclobutyl-2-fluorophenoxy)-3-(2H-1,2,3-triazol-2-yl)propan-2-ol]	86	275
Nc1cnc(-c2ccc(C3CCC3)c(OCC(O)CN3CCOCC3)c2F)cn1 (racemic) [Example 255, 1-(3-(5-aminopyrazin-2-yl)-6-cyclobutyl-2-fluorophenoxy)-3-morpholinopropan-2-ol]	1140	1140
COc1c(C2CCC2)ccc(-c2cnc(N)cn2)c1F [A, 5-(4-Cyclobutyl-2-fluoro-3-methoxyphenyl)pyrazin-2-amine]	64	531
Nc1cnc(-c2ccc(C3CCC3)c(O)c2F)cn1 [B, 3-(5-Aminopyrazin-2-yl)-6-cyclobutyl-2-fluorophenol]	354	960
Nc1cnc(-c2ccc(C3CCC3)c(OCc3ccc(C(F)(F)F)cc3)c2F)cn1 [Example 1, 5-(4-Cyclobutyl-2-fluoro-3-{[4-(trifluoromethyl)benzyl]oxy}phenyl)-pyrazin-2-amine]	286	588
Nc1cnc(-c2ccc(C3CCC3)c(OCc3ccc(C(=O)O)cc3)c2F)cn1 [Example 5, 4-{[3-(5-Aminopyrazin-2-yl)-6-cyclobutyl-2-fluorophenoxy]methyl}benzoic acid]	11	263
CS(=O)(=O)c1ccc(COc2c(C3CCC3)ccc(-c3cnc(N)cn3)c2F)cc1 [Example 7, 5-(4-Cyclobutyl-2-fluoro-3-{[4-(methylsulfonyl)benzyl]oxy}phenyl)-pyrazin-2-amine]	7	1400
Nc1cnc(-c2ccc(C3CCC3)c(OCc3cccnc3)c2F)cn1 [Example 13, 5-[4-Cyclobutyl-2-fluoro-3-(pyridin-3-ylmethoxy)phenyl]pyrazin-2-amine]	250	1290
Nc1cnc(-c2ccc(C3CCC3)c(OCc3ccncc3)c2F)cn1 [Example 14, 5-[4-Cyclobutyl-2-fluoro-3-(pyridin-4-ylmethoxy)phenyl]pyrazin-2-amine]	122	2290
N#Cc1ccc(COc2c(C3CCC3)ccc(-c3cnc(N)cn3)c2F)cc1 [Example 15, 4-{[3-(5-Aminopyrazin-2-yl)-6-cyclobutyl-2-fluorophenoxy]methyl}benzonitrile]	193	1240
N#Cc1cccc(COc2c(C3CCC3)ccc(-c3cnc(N)cn3)c2F)c1 [Example 16, 3-{[3-(5-Aminopyrazin-2-yl)-6-cyclobutyl-2-fluorophenoxy]methyl}benzonitrile]	98	467
COC(=O)c1ccc2oc(COc3c(C4CCC4)ccc(-c4cnc(N)cn4)c3F)nc2c1 [Example 274, Methyl 2-{[3-(5-aminopyrazin-2-yl)-6-cyclobutyl-2-fluorophenoxy]methyl}-1,3-benzoxazole-5-carboxylate]		160
COC(=O)c1ccc(O)c(NC(=O)COc2c(C3CCC3)ccc(-c3cnc(N)cn3)c2F)c1 [Example 275, Methyl 3-({[3-(5-aminopyrazin-2-yl)-6-cyclobutyl-2-fluorophenoxy]acetyl}amino)-4-hydroxybenzoate]		1960
Nc1cnc(-c2ccc(C3CCC3)c(Oc3nc4ncccc4s3)c2F)cn1 [Example 330, 5-(4-Cyclobutyl-2-fluoro-3-(thiazolo[4,5-b]pyridin-2-yloxy)phenyl)pyrazin-2-amine]		> 1000

The remaining lines, values ahead:

Ki [1] [nM]	IC50 [2] [nM]	Molecule
296	909	Nc1cnc(-c2ccc(C3CCC3)c(OCC(O)Cn3ccncc3=O)c2F)cn1 (racemic) [Example 54, racemic 1-(3-(3-(5-Aminopyrazin-2-yl)-6-cyclobutyl-2-fluorophenoxy)-2-hydroxypropyl)pyrazin-2(1H)-one]
36	345	Nc1cnc(-c2ccc(C3CCC3)c(OCC(O)CNc3cnccn3)c2F)cn1 (racemic) [Example 57, racemic 1-(3-(5-Aminopyrazin-2-yl)-6-cyclobutyl-2-fluorophenoxy)-3-(pyrazin-2-ylamino)propan-2-ol]
327	1540	Nc1cnc(-c2ccc(C3CCC3)c(OCC(O)CNc3cc(N)ncn3)c2F)cn1 (racemic) [Example 59, racemic 1-(3-(5-Aminopyrazin-2-yl)-6-cyclobutyl-2-fluorophenoxy)-3-((6-aminopyrimidin-4-yl)amino)propan-2-ol]
262	697	Nc1cnc(-c2ccc(C3CCC3)c(OCC(O)Cn3ccnc3)c2F)cn1 (racemic) [Example 61, racemic 1-(3-(5-Aminopyrazin-2-yl)-6-cyclobutyl-2-fluorophenoxy)-3-(1H-imidazol-1-yl)propan-2-ol]
120	212	Nc1cnc(-c2ccc(C3CCC3)c(OCC(O)Cn3ccnn3)c2F)cn1 (racemic) [Example 63, racemic 1-(3-(5-Aminopyrazin-2-yl)-6-cyclobutyl-2-fluorophenoxy)-3-(1H-1,2,3-triazol-1-yl)propan-2-ol]
422	753	Nc1cnc(-c2ccc(C3CCC3)c(OCC(O)Cn3nncc3N)c2F)cn1 (racemic) [Example 66, racemic 1-(5-Amino-1H-1,2,3-triazol-1-yl)-3-(3-(5-aminopyrazin-2-yl)-6-cyclobutyl-2-fluorophenoxy)propan-2-ol]
434	718	Nc1cnc(-c2ccc(C3CCC3)c(OCC(O)CN3CCS(=O)(=O)CC3)c2F)cn1 (racemic) [Example 256, 4-(3-(3-(5-Aminopyrazin-2-yl)-6-cyclobutyl-2-fluorophenoxy)-2-hydroxypropyl)thiomorpholine 1,1-dioxide]
8.1	110	Nc1cnc(-c2ccc(C3CCC3)c(OCC(O)Cn3c(=O)[nH]c4ccccc43)c2F)cn1 (racemic) [Example 311, racemic 1-{3-[3-(5-Aminopyrazin-2-yl)-6-cyclobutyl-2-fluorophenoxy]-2-hydroxypropyl}-1,3-dihydro-2H-benzimidazol-2-one]
158	526	Nc1cnc(-c2ccc(C3CCC3)c(OCc3cccc(C(F)(F)F)c3)c2F)cn1 [Example 2, 5-(4-Cyclobutyl-2-fluoro-3-{[3-(trifluoromethyl)benzyl]oxy}phenyl)-pyrazin-2-amine]
250	271	Nc1cnc(-c2ccc(C3CCC3)c(OCc3ccccc3C(F)(F)F)c2F)cn1 [Example 3, 5-(4-Cyclobutyl-2-fluoro-3-{[2-(trifluoromethyl)benzyl]oxy}phenyl)-pyrazin-2-amine]
4	298	Nc1cnc(-c2ccc(C3CCC3)c(OCc3cccc(C(=O)O)c3)c2F)cn1 [Example 4, 3-{[3-(5-Aminopyrazin-2-yl)-6-cyclobutyl-2-fluorophenoxy]methyl}benzoic acid]
	417	CC(C)(C)OC(=O)N1CCC(COc2c(C3CCC3)ccc(-c3cnc(N)cn3)c2F)C1 (centres unmarked) [Example 247, tert-butyl 3-((3-(5-aminopyrazin-2-yl)-6-cyclobutyl-2-fluoro-phenoxy)methyl)pyrrolidine-1-carboxylate]
	85.3	Nc1cnc(-c2ccc(C3CCC3)c(Oc3cnc4cc(F)c(F)cc4n3)c2F)cn1 [Example 271, 5-{4-Cyclobutyl-3-[(6,7-difluoroquinoxalin-2-yl)oxy]-2-fluorophenyl}pyrazin-2-amine]
	167	Nc1cnc(-c2ccc(C3CCCCC3)c(Oc3ncccn3)c2F)cn1 [Example 320, 5-(4-Cyclohexyl-2-fluoro-3-(pyrimidin-2-yloxy)phenyl)pyrazin-2-amine]
